The source made the active and inactive calls. No cut-off for these calls is given here.
Tests used:
[1] = Cytotoxicity against human HEK-Blue hNOD2 cells assessed as metabolic activity at 10 uM incubated for 18 hes by MTT assay; format: toxicity, cell-based; settings: hek-blue hnod2, 10 µM
PBMC [2] = test: Immunomodulatory activity in human PBMC cells assessed as increase in IL-4 level at 2 uM incubated for 18 hrs y flow cytometry analysis; format: functional, cell-based
Method in brief: (§1)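 For 18 h at 37 °C, 5% CO2, human donor PBMCs at 1 × 10^6 cells/mL were incubated without LPS in the presence of 2 μM compound or 0.1% DMSO vehicle. Cytokines were then quantified in cell-free supernatants by flow cytometry with a LEGENDplex human immune response panel, using the kit's recombinant standards. Four independent replicates were analysed by two-way ANOVA and Tukey's test.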

PBMC [3] = test: Immunomodulatory activity in human PBMC cells assessed as increase in IL-2 level at 2 uM incubated for 18 hrs y flow cytometry analysis; format: functional, cell-based; method in brief: as §1
PBMC [4] = test: Immunomodulatory activity in human PBMC cells assessed as increase in IP-10 level at 2 uM incubated for 18 hrs y flow cytometry analysis; format: functional, cell-based; method in brief: as §1
PBMC [5] = test: Immunomodulatory activity in human PBMC cells assessed as increase in IL-1beta level at 2 uM incubated for 18 hrs y flow cytometry analysis; format: functional, cell-based; method in brief: as §1
PBMC [6] = test: Immunomodulatory activity in human PBMC cells assessed as increase in TNF-alpha level at 2 uM incubated for 18 hrs y flow cytometry analysis; format: functional, cell-based; method in brief: as §1
PBMC [7] = test: Immunomodulatory activity in human PBMC cells assessed as increase in MCP-1 level at 2 uM incubated for 18 hrs y flow cytometry analysis; format: functional, cell-based; method in brief: as §1
PBMC [8] = test: Immunomodulatory activity in human PBMC cells assessed as increase in IL-17A level at 2 uM incubated for 18 hrs y flow cytometry analysis; format: functional, cell-based; method in brief: as §1
PBMC [9] = test: Immunomodulatory activity in human PBMC cells assessed as increase in IL-6 level at 2 uM incubated for 18 hrs y flow cytometry analysis; format: functional, cell-based; method in brief: as §1
PBMC [10] = test: Immunomodulatory activity in human PBMC cells assessed as increase in IL-10 level at 2 uM incubated for 18 hrs y flow cytometry analysis; format: functional, cell-based; method in brief: as §1
PBMC [11] = test: Immunomodulatory activity in human PBMC cells assessed as increase in IFN-gamma level at 2 uM incubated for 18 hrs y flow cytometry analysis; format: functional, cell-based; method in brief: as §1
PBMC [12] = test: Immunomodulatory activity in human PBMC cells assessed as increase in IL-12p70 level at 2 uM incubated for 18 hrs y flow cytometry analysis; format: functional, cell-based; method in brief: as §1
PBMC [13] = test: Immunomodulatory activity in human PBMC cells assessed as increase in IL-8 level at 2 uM incubated for 18 hrs y flow cytometry analysis; format: functional, cell-based; method in brief: as §1
PBMC [14] = test: Immunomodulatory activity in human PBMC cells assessed as increase in TGF-beta1 level at 2 uM incubated for 18 hrs y flow cytometry analysis; format: functional, cell-based; method in brief: as §1
PBMC [15] = test: Immunomodulatory activity in human PBMC cells assessed as increase in LPS-induced IL-1beta level at 2 uM incubated for 18 hrs y flow cytometry analysis; format: functional, cell-based
PBMC [16] = test: Immunomodulatory activity in human PBMC cells assessed as increase in LPS-induced IL-6 level at 2 uM incubated for 18 hrs y flow cytometry analysis; format: functional, cell-based
Method in brief: (§2)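 Human donor PBMCs (Ficoll-Paque; 1 × 10^6 cells/mL, 500 μL, 48-well plates) were treated with compounds at 2 μM or 0.1% DMSO vehicle in the presence of LPS (10 ng/mL) for 18 h at 37 °C, 5% CO2. Cytokines in cell-free supernatants were quantified with the LEGENDplex Human Essential Immune Response Panel on a flow cytometer against kit recombinant standard curves. Four independent replicates; two-way ANOVA with Tukey's test.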

PBMC [17] = test: Immunomodulatory activity in human PBMC cells assessed as increase in LPS-induced IL-10 level at 2 uM incubated for 18 hrs y flow cytometry analysis; format: functional, cell-based; method in brief: as §2
PBMC [18] = test: Immunomodulatory activity in human PBMC cells assessed as increase in LPS-induced TNF-alpha level at 2 uM incubated for 18 hrs y flow cytometry analysis; format: functional, cell-based
PBMC [19] = test: Immunomodulatory activity in human PBMC cells assessed as increase in LPS-induced IL-12p70 level at 2 uM incubated for 18 hrs y flow cytometry analysis; format: functional, cell-based
PBMC [20] = test: Immunomodulatory activity in human PBMC cells assessed as increase in LPS-induced IFN-gamma level at 2 uM incubated for 18 hrs y flow cytometry analysis; format: functional, cell-based
PBMC [21] = test: Immunomodulatory activity in human PBMC cells assessed as increase in LPS-induced MCP-1 level at 2 uM incubated for 18 hrs y flow cytometry analysis; format: functional, cell-based; method in brief: as §2
PBMC [22] = test: Immunomodulatory activity in human PBMC cells assessed as increase in LPS-induced IP-10 level at 2 uM incubated for 18 hrs y flow cytometry analysis; format: functional, cell-based; method in brief: as §2
PBMC [23] = test: Cytotoxicity against human PBMC cells co-cultured with human K562 cells at 10 uM incubated for 4 hrs; format: functional, cell-based
Method in brief: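 Human PBMCs (4 × 10^5/well, 96-well) were pretreated 18 h with compounds at 10 μM (vehicle 0.1% DMSO). CFSE-stained K562 cells (1 × 10^4/well; effector:target 40:1) were then added for 4 h at 37 °C, 5% CO2. Cells were stained with Sytox blue and analysed on an Attune NxT flow cytometer. Killing was read as CFSE+ Sytox blue+ K562 cells. Duplicates, three independent biological replicates; one-way ANOVA with Dunnett's test.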

[24] = Cytotoxicity against human PBMC cells at 10 uM incubated for 4 hrs; format: toxicity, cell-based
Method in brief: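 Direct cytotoxicity toward human PBMCs alone was taken as the Sytox blue-positive cell population, measured by flow cytometry on an Attune NxT with FlowJo analysis. Compound exposure was at 10 μM with 0.1% DMSO vehicle, in parallel with a K562 killing assay. Data came from duplicates in three independent biological replicates, compared by one-way ANOVA with Dunnett's test.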

[25] = Cytotoxicity against human PBMC cells at 10 uM incubated for 4 hrs in presence of MDP; format: toxicity, cell-based
BMDC [26] = test: Adjuvant activity in OVA-immunized C57BL/6J mouse BMDC cells assessed as increase in CD4+ T cell activation incubated for 18 hrs; format: functional, cell-based
Method in brief: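 After an 18 h pretreatment with compounds at 10 μM plus 50 μg/mL ovalbumin, bone-marrow-derived dendritic cells from C57BL/6 mice (grown 7 days with GM-CSF) were washed and plated at 1 × 10^4/well with 5 × 10^4 CFSE-labelled OT II CD4+ T cells for 72 h at 37 °C, 5% CO2. Flow cytometry measured activation of live Thy1.2+/CD4+ cells by CFSE dilution and CD25 expression, with duplicates in two independent biological replicates compared by paired t tests.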

BMDC [27] = test: Adjuvant activity in OVA-immunized C57BL/6J mouse BMDC cells co-cultured with mouse CD4+ T cells assessed as increase in IL-2 level at 10 uM incubated for 18 hrs; format: functional, cell-based
BMDC [28] = test: Adjuvant activity in OVA-immunized C57BL/6J mouse BMDC cells co-cultured with mouse CD4+ T cells assessed as increase in IL-9 level at 10 uM incubated for 18 hrs; format: functional, cell-based
BMDC [29] = test: Adjuvant activity in OVA-immunized C57BL/6J mouse BMDC cells co-cultured with mouse CD8+ T cells assessed as increase in IL-6 production at 10 uM incubated for 18 hrs by flow cytometry analysis; format: functional, cell-based
BMDC [30] = test: Adjuvant activity in OVA-immunized C57BL/6J mouse BMDC cells co-cultured with mouse CD8+ T cells assessed as reduction in IFN-gamma production at 10 uM incubated for 18 hrs by flow cytometry analysis; format: functional, cell-based
BMDC [31] = test: Adjuvant activity in OVA-immunized C57BL/6J mouse BMDC cells co-cultured with mouse CD4+ T cells assessed as reduction in IFN-gamma production at 10 uM incubated for 18 hrs by flow cytometry analysis; format: functional, cell-based
BMDC [32] = test: Adjuvant activity in OVA-immunized C57BL/6J mouse BMDC cells co-cultured with mouse CD4+ T cells assessed as increase in IL-4 production at 10 uM incubated for 18 hrs by flow cytometry analysis; format: functional, cell-based
BMDC [33] = test: Adjuvant activity in OVA-immunized C57BL/6J mouse BMDC cells co-cultured with mouse CD4+ T cells assessed as increase in IL-6 production at 10 uM incubated for 18 hrs by flow cytometry analysis; format: functional, cell-based
BMDC [34] = test: Adjuvant activity in OVA-immunized C57BL/6J mouse BMDC cells co-cultured with mouse CD8+ T cells assessed as increase in IL-9 production at 10 uM incubated for 18 hrs by flow cytometry analysis; format: functional, cell-based

For `CCCC(=O)Oc1ccc(/C=C/C(=O)NCC(=O)N[C@H](C(=O)N[C@H](CCC(=O)OCC)C(=O)OCC)C(C)C)cc1OC`, the Activity [1] was “Non-toxic”, the Activity (PBMC [2]) was “Active” and the Activity (PBMC [3]) was “Active”. The Activity (PBMC [4]) was “Active”, the Activity (PBMC [5]) was “Active” and the Activity (PBMC [6]) was “Active”. For the same molecule, the Activity (PBMC [7]) was “Active”, the Activity (PBMC [8]) was “Active” and the Activity (PBMC [9]) was “Active”. The Activity (PBMC [10]) was “Active”, the Activity (PBMC [11]) was “Active” and the Activity (PBMC [12]) was “Active”. The Activity (PBMC [13]) was “Active”, the Activity (PBMC [14]) was “Active” and the Activity (PBMC [15]) was “Active”. The Activity (PBMC [16]) was “Active”, the Activity (PBMC [17]) was “Active” and the Activity (PBMC [18]) was “Active”. The Activity (PBMC [19]) was “Active”, the Activity (PBMC [20]) was “Active” and the Activity (PBMC [21]) was “Active”. The Activity (PBMC [22]) was “Active”, the Activity (PBMC [23]) was “inactive” and the Activity [24] was “Non-toxic”. For the same molecule, the Activity [25] was “Non-toxic”, the Activity (BMDC [26]) was “Active” and the Activity (BMDC [27]) was “Active”. The Activity (BMDC [28]) was “Active”, the Activity (BMDC [29]) was “Active” and the Activity (BMDC [30]) was “Active”. The Activity (BMDC [31]) was “Active” and the Activity (BMDC [32]) was “Active”.

In the case of `CCOC(=O)[C@@H](CCC(=O)NC12C[C@H]3C[C@@H](C1)C[C@@H](C2)C3)NC(=O)[C@@H](NC(=O)CNC(=O)/C=C/c1ccc(O)c(OC)c1)C(C)C`, the Activity [1] is reported as “Non-toxic”, the Activity (PBMC [2]) is reported as “Active” and the Activity (PBMC [3]) is reported as “Active”. For the same molecule, the Activity (PBMC [4]) was “Active”, the Activity (PBMC [5]) was “Active” and the Activity (PBMC [6]) was “Active”. The Activity (PBMC [7]) was “Active”, the Activity (PBMC [8]) was “Active” and the Activity (PBMC [9]) was “Active”. The Activity (PBMC [10]) was “Active”, the Activity (PBMC [11]) was “Active” and the Activity (PBMC [12]) was “Active”. For the same molecule, the Activity (PBMC [13]) was “Active”, the Activity (PBMC [14]) was “Active” and the Activity (PBMC [15]) was “Active”. The Activity (PBMC [16]) was “Active”, the Activity (PBMC [17]) was “Active” and the Activity (PBMC [18]) was “Active”. For the same molecule, the Activity (PBMC [19]) was “Active”, the Activity (PBMC [20]) was “Active” and the Activity (PBMC [21]) was “Active”. For the same molecule, the Activity (PBMC [22]) was “Active”, the Activity (PBMC [23]) was “inactive” and the Activity [24] was “Non-toxic”. The Activity [25] was “Non-toxic”, the Activity (BMDC [26]) was “Active” and the Activity (BMDC [27]) was “Active”. For the same molecule, the Activity (BMDC [28]) was “Active”, the Activity (BMDC [33]) was “Active” and the Activity (BMDC [29]) was “Active”. The Activity (BMDC [34]) was “Active”, the Activity (BMDC [30]) was “Active” and the Activity (BMDC [31]) was “Active”. For the same molecule, the Activity (BMDC [32]) was “Active”.

For `CC/C=C\C/C=C\C/C=C\C/C=C\C/C=C\CCCC(=O)Oc1ccc(/C=C/C(=O)NCC(=O)N[C@H](C(=O)N[C@H](CCC(=O)OCC)C(=O)OCC)C(C)C)cc1OC`, the Activity [1] was “Non-toxic”, the Activity (PBMC [2]) was “Active” and the Activity (PBMC [3]) was “Active”. The Activity (PBMC [4]) was “Active”, the Activity (PBMC [5]) was “Active” and the Activity (PBMC [6]) was “Active”. The Activity (PBMC [7]) was “Active”, the Activity (PBMC [8]) was “Active” and the Activity (PBMC [9]) was “Active”. For the same molecule, the Activity (PBMC [10]) was “Active”, the Activity (PBMC [11]) was “Active” and the Activity (PBMC [12]) was “Active”. For the same molecule, the Activity (PBMC [13]) was “Active”, the Activity (PBMC [14]) was “Active” and the Activity (PBMC [15]) was “Active”. The Activity (PBMC [16]) was “Active”, the Activity (PBMC [17]) was “Active” and the Activity (PBMC [18]) was “Active”. The Activity (PBMC [19]) was “Active”, the Activity (PBMC [20]) was “Active” and the Activity (PBMC [21]) was “Active”. The Activity (PBMC [22]) was “Active”, the Activity (PBMC [23]) was “inactive” and the Activity [24] was “Non-toxic”. For the same molecule, the Activity [25] was “Non-toxic”, the Activity (BMDC [26]) was “Active” and the Activity (BMDC [27]) was “Active”. The Activity (BMDC [28]) was “Active”, the Activity (BMDC [29]) was “Active” and the Activity (BMDC [30]) was “Active”. The Activity (BMDC [31]) was “Active” and the Activity (BMDC [32]) was “Active”.
